Test results taken from patent US20230091225A1, “Bifunctional chimeric heterocyclic compounds for targeted degradation of androgen receptors and use thereof” (HINOVA PHARMACEUTICALS INC., priority 2019, published 2023).

target: T1, androgen receptor (AR) (Homo sapiens, UniProt P10275); assay: Degradation of androgen receptor (AR) protein in VCaP cells by Western blot; assay type: cell-based; conditions: percentage of degraded AR at 100 nM, VCaP cells, 16 h
T1 sequence (P10275 1-920): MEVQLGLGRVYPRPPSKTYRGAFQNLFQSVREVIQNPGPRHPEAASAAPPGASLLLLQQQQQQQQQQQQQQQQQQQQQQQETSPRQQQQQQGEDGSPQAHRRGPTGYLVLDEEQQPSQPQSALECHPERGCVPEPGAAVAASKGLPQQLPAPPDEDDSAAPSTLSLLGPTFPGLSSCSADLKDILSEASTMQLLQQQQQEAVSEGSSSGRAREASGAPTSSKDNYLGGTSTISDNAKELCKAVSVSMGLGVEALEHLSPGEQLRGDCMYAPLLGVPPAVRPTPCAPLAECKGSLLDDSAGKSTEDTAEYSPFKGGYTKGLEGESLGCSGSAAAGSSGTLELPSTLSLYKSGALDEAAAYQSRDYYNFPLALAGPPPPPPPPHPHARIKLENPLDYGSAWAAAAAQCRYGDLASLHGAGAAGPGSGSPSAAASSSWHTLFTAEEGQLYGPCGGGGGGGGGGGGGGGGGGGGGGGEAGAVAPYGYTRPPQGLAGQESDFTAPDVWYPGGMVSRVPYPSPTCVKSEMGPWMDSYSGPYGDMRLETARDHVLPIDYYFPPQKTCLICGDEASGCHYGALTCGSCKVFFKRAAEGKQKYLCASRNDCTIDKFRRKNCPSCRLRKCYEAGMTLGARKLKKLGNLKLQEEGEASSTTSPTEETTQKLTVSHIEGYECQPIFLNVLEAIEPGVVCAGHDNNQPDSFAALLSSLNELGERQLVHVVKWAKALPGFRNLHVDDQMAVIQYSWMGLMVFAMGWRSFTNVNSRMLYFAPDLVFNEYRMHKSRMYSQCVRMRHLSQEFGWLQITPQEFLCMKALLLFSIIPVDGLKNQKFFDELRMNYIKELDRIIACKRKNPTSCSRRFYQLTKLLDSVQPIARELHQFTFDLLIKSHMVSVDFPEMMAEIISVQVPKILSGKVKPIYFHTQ
Procedure, shortened: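 VCaP cells (5×10^5/well) were seeded overnight, then treated in duplicate for 16 h with compound in 0.1% DMSO final. Lysates (30 μg protein) were immunoblotted for AR (D6F11) with β-actin as loading control, detected by ECL chemiluminescence.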

| SMILES | % degradation | inhibition at 0.1 µM [%] |
| --- | --- | --- |
| N#Cc1ccc(OC2CCC(NC(=O)c3cnc(N4C[C@@H]5CN(C6CCN(c7cc8c(cc7F)C(=O)N(C7CCC(=O)NC7=O)C8=O)CC6)C[C@@H]5C4)nc3)CC2)cc1Cl (stereo partly drawn) [Compound 220, N-((1s,4S)-4-(3-chloro-4-cyanophenoxy)cyclohexyl)-2-((3aR,6aS)-5-(1-(2-(2,6-dioxopiperidin-3-yl)-6-fluoro-1,3-dioxoisoindolin-5-yl)piperidine-4-yl)hexahydropyrrolo[3,4-c]pyrrol-2(1H)-yl)pyrimidine-5-carboxamide] | D (<25%) | – |
| CC1(C)[C@H](NC(=O)c2ccc(N3CCC(N4C[C@H]5CN(c6cc7c(cc6F)C(=O)N(C6CCC(=O)NC6=O)C7=O)C[C@H]5C4)CC3)nn2)C(C)(C)[C@H]1Oc1ccc(C#N)c(Cl)c1 (stereo partly drawn) [Compound 221, N-((1r,3R)-3-(3-chloro-4-cyanophenoxy)-2,2,4,4-tetramethylcyclobutyl)-6-(4-((3aR,6aS)-5-(2-(2,6-dioxopiperidin-3-yl)-6-fluoro-1,3-dioxoisoindolin-5-yl)hexahydropyrrolo[3,4-c]pyrrol-2(1H)-yl)piperidin-1-yl)pyridazine-3-carboxamide] | – | 25 to 49 |
| N#Cc1ccc(O[C@H]2CC[C@H](NC(=O)c3ccc(N4C[C@H]5C[C@@H](CN6CC7CN(c8cc9c(cc8F)C(=O)N(C8CCC(=O)NC8=O)C9=O)CC7C6)C[C@H]5C4)nn3)CC2)cc1Cl (stereo partly drawn) [Compound 222, N-((1r,4r)-4-(3-chloro-4-cyanophenoxy)cyclohexyl)-6-((3aR,5R, 6aS)-5-((5-(2-(2,6-dioxopiperidin-3-yl)-6-fluoro-1,3-dioxoisoindolin-5-yl)hexahydropyrrolo[3,4-c]pyrrol-2(1H)-yl)methyl)hexahydrocyclopenta[c]pyrrole-2(1H)-yl)pyridazine-3-formamide] | – | > 80 |
| N#Cc1ccc(O[C@H]2CC[C@H](NC(=O)c3ccc(N4CC(N5CC6CN(c7cc8c(cc7F)C(=O)N(C7CCC(=O)NC7=O)C8=O)CC6C5)C4)nn3)CC2)cc1Cl (some centres unmarked) [Compound 223, N-((1r,4r)-4-(3-chloro-4-cyanophenoxy)cyclohexyl)-6-(3-(5-(2-(2,6-dioxopiperidin-3-yl)-6-fluoro-1,3-dioxoisoindolin-5-yl)hexahydropyrrolo[3,4-c]pyrrol-2(1H)-yl)azitidin-1-yl)pyridazine-3-carboxamide] | – | > 80 |
| N#Cc1ccc(O[C@H]2CC[C@H](NC(=O)c3ccc(N4C[C@H]5C[C@@H](CN6CCN(c7cc8c(cc7F)C(=O)N(C7CCC(=O)NC7=O)C8=O)CC6)C[C@H]5C4)nn3)CC2)cc1Cl (stereo partly drawn) [Compound 224, N-((1r,4r)-4-(3-chloro-4-cyanophenoxy)cyclohexyl)-6-((3aR,5R,6aS)-5-((4-(2-(2,6-dioxopiperidin-3-yl)-6-fluoro-1,3-dioxoisoindolin-5-yl)piperazin-1-yl)methyl)hexahydrocyclopenta[c]pyrrole-2(1H)-yl)pyridazine-3-formamide] | – | 50 to 79 |
| N#Cc1ccc(O[C@H]2CC[C@H](NC(=O)c3cnc(N4CC(N5CC6CN(c7cc8c(cc7F)C(=O)N(C7CCC(=O)NC7=O)C8=O)CC6C5)C4)cn3)CC2)cc1Cl (some centres unmarked) [Compound 225, N-((1r,4r)-4-(3-chloro-4-cyanophenoxy)cyclohexyl)-5-(3-(5-(2-(2,6-dioxopiperidin-3-yl)-6-fluoro-1,3-dioxoisoindolin-5-yl)hexahydropyrrolo[3,4-c]pyrrol-2(1H)-yl)azitidin-1-yl)pyrazine-2-carboxamide] | – | 50 to 79 |
| N#Cc1ccc(O[C@H]2CC[C@H](NC(=O)c3ccc(N4CCN(CC5C[C@@H]6CN(c7cc8c(cc7F)C(=O)N(C7CCC(=O)NC7=O)C8=O)C[C@@H]6C5)CC4)nn3)CC2)cc1Cl (some centres unmarked) [Compound 226] | – | 50 to 79 |
| N#Cc1ccc(Oc2ccc(NC(=O)c3ccc(N4CCC(CN5CCN(c6cc7c(cc6F)C(=O)N(C6CCC(=O)NC6=O)C7=O)CC5)CC4)nn3)cc2)cc1Cl (centres unmarked) [Compound 227, N-(4-(3-chloro-4-cyanophenoxy)phenyl)-6-(4-((4-(2-(2,6-dioxopiperidin-3-yl)-6-fluoro-1,3-dioxoisoindolin-5-yl)piperazin-1-yl)methyl)piperidin-1-yl)pyridazine-3-formamide] | – | 25 to 49 |
| N#Cc1ccc(O[C@H]2CC[C@H](NC(=O)c3cnc(N4CCC(N5CC6(CCN(c7cc8c(cc7F)C(=O)N(C7CCC(=O)NC7=O)C8=O)CC6)C5)CC4)cn3)CC2)cc1Cl (some centres unmarked) [Compound 228, N-((1r,4r)-4-(3-chloro-4-cyanophenoxy)cyclohexyl)-5-(4-(7-(2-(2,6-dioxopiperidin-3-yl)-6-fluoro-1,3-dioxoisoindolin-5-yl)-2,7-diazaspiro[3.5]nonan-2-yl)piperidin-1-yl)pyrazine-2-carboxamide] | – | > 80 |
| N#Cc1ccc(O[C@H]2CC[C@H](NC(=O)c3cnc(N4CCC(N5CC6(CCN(c7ccc8c(c7)C(=O)N(C7CCC(=O)NC7=O)C8=O)CC6)C5)CC4)cn3)CC2)cc1Cl (some centres unmarked) [Compound 229, N-((1r,4r)-4-(3-chloro-4-cyanophenoxy)cyclohexyl)-5-(4-(7-(2-(2,6-dioxopiperidin-3-yl)-1,3-dioxoisoindolin-5-yl)-2,7-diazaspiro[3.5]nonan-2-yl)piperidin-1-yl)pyrazine-2-carboxamide] | – | > 80 |
| N#Cc1ccc(OC2CCC(NC(=O)c3ccc(N4CCC(CN5CCC6(CC5)CN(c5ccc7c(c5)C(=O)N(C5CCC(=O)NC5=O)C7=O)C6)CC4)nn3)CC2)cc1Cl (centres unmarked) [Compound 230, N-((1r,4r)-4-(3-chloro-4-cyanophenoxy)cyclohexyl)-6-(4-((2-(2-(2,6-dioxopiperidin-3-yl)-1,3-dioxoisoindolin-5-yl)-2,7-diazaspiro[3.5]nonan-7-yl)methyl)piperidin-1-yl)pyridazine-3-carboxamide] | A (>80%) | – |
| N#Cc1ccc(O[C@H]2CC[C@H](NC(=O)c3ccc(N4CCC(CN5CCC6(CC5)CN(c5cc7c(cc5F)C(=O)N(C5CCC(=O)NC5=O)C7=O)C6)CC4)nn3)CC2)cc1Cl (some centres unmarked) [Compound 231, N-((1r,4r)-4-(3-chloro-4-cyanophenoxy)cyclohexyl)-6-(4-((2-(2-(2-,2,6-dioxopiperidin-3-yl)-6-fluoro-1,3-dioxoisoindolin-5-yl)-2,7-diazaspiro[3.5]nonan-7-yl)methyl)piperidin-1-yl)pyridazine-3-carboxamide] | – | > 80 |
| N#Cc1ccc(O[C@H]2CC[C@H](NC(=O)c3ccc(N4CC5(CCN(CC6CCN(c7cc8c(cc7F)C(=O)N(C7CCC(=O)NC7=O)C8=O)CC6)CC5)C4)nn3)CC2)cc1Cl (some centres unmarked) [Compound 232] | – | > 80 |
| N#Cc1ccc(O[C@H]2CC[C@H](NC(=O)c3ccc(N4CCC(CN5CC6CN(c7ccc8c(c7)C(=O)N(C7CCC(=O)NC7=O)C8=O)CC6C5)CC4)nn3)CC2)cc1Cl (some centres unmarked) [Compound 252, N-((1r,4r)-4-(3-chloro-4-cyanophenoxy)cyclohexyl)-6-(4-((5-(2-(2,6-dioxopiperidin-3-yl)-1,3-dioxoisoindolin-5-yl)Hexahydropyrrolo[3,4-c]pyrrol-2(11H)-yl)methyl)piperidin-1-yl)pyridazine-3-formamide] | – | 25 to 49 |
| N#Cc1ccc(O[C@H]2CC[C@H](NC(=O)c3ccc(N4CCC(CN5CC6CN(c7cc8c(cc7F)C(=O)N(C7CCC(=O)NC7=O)C8=O)CC6C5)CC4)nn3)CC2)cc1Cl (some centres unmarked) [Compound 253, N-((1r,4r)-4-(3-chloro-4-cyanophenoxy)cyclohexyl)-6-(4-((5-(2-(2,6-dioxopiperidin-3-yl)-6-fluoro-1,3-dioxoisoindolin-5-yl)Hexahydropyrrolo[3,4-c]pyrrol-2(1H)-yl)methyl)piperidin-1-yl)pyridazine-3-formamide] | – | 50 to 79 |
| N#Cc1ccc(O[C@H]2CC[C@H](NC(=O)c3cnc(N4CCC(CN5CC6CN(c7ccc8c(c7)C(=O)N(C7CCC(=O)NC7=O)C8=O)CC6C5)CC4)cn3)CC2)cc1Cl (some centres unmarked) [Compound 254, N-((1r,4r)-4-(3-chloro-4-cyanophenoxy)cyclohexyl)-5-(4-((5-(2-(2,6-dioxopiperidin-3-yl)-1,3-dioxoisoindolin-5-yl)Hexahydropyrrolo[3,4-c]pyrrol-2(11H)-yl)methyl)piperidin-1-yl)pyrazine-2-carboxamide] | – | 50 to 79 |
| N#Cc1ccc(O[C@H]2CC[C@H](NC(=O)c3cnc(N4CCC(CN5CC6CN(c7cc8c(cc7F)C(=O)N(C7CCC(=O)NC7=O)C8=O)CC6C5)CC4)cn3)CC2)cc1Cl (some centres unmarked) [Compound 255, N-((1r,4r)-4-(3-chloro-4-cyanophenoxy)cyclohexyl)-5-(4-((5-(2-(2,6-dioxopiperidin-3-yl)-6-fluoro-1,3-dioxoisoindolin-5-yl)Hexahydropyrrolo[3,4-c]pyrrol-2(1H)-yl)methyl)piperidin-1-yl)pyrazine-2-carboxamide] | – | 50 to 79 |
